As a reminder, the EC50 is the midpoint of the concentration-response curve. A higher EC50 goes with a need for much substance. As a reminder, the IC50 is the concentration at which inhibition is half-maximal. Lower therefore signals inhibition by little substance. As a reminder, the solubility (kinetic) is solubility judged after dilution from a stock solution rather than from solid.

These results are taken from patent publication US20160375019A1, “TREATMENT OF CHRONIC GRAFT VERSUS HOST DISEASE WITH SYK INHIBITORS” (Gilead Sciences, Inc., priority 2015, published 2016).

In data set [1] the test system is basophils (CD63 expression) in human whole blood. Put plainly: 384-well HTBS Whole Blood CD63 Basophil Assay. It counts as cell-based. To be noted: human whole blood (25% blood); for EC50: Homo sapiens, anti-FceRI mAb activation; for IC50: comparison table. On the procedure:
Syk activity was assessed in relation to reduced activation of basophils as measured by the expression of CD63 in a human whole blood basophil cellular assay (25% blood). Basophil activation was measured in human whole blood using the Flow CAST kit (Buhlmann Laboratories AG, Baselstrasse, Switzerland) following the protocol provided by the manufacturer with minor modifications. Fresh human whole blood in heparin was collected and delivered same day (AllCells, Emeryville, Calif.). Whole blood samples were incubated with either DMSO (1% final) or serial diluted compounds in DMSO for 60 minutes at 37° C. Basophils were activated using the anti-FceRI mAb and stained with anti-CD63-FITC and anti-CCR3-PE for 20 minutes at 37° C. (per well: 50 μL of whole blood was mixed with 113 μL of stimulation buffer, 8.5 μL anti-FceRI mAb, 8.5 μL Ab stain CCR3-PE/CD63-FITC). Cells were centrifuged at 1000×g for 18 minutes and 150 μL/well of supernatant removed. Red blood cells were lysed and cells fixed by 2 rounds of cell lysing: resuspending cell pellets with 150 μL/well 1× lysis buffer, incubating at room temperature for 10 minutes, and collecting cell pellets by centrifuging for 1200 rpms for 5 minutes. Cells were washed with 150 μL/well wash buffer twice, and resuspended in a final volume of 75 μL/well of wash buffer for either immediate flow cytometery analysis or overnight incubation at 4° C. followed by flow cytometry analysis. Degranulation (basophil activation) was detected by CD63 surface expression on CCR3 positive cells. The percent CD63 positive cells within the gated basophil population were determined and normalized to the DMSO (negative control) and control compound (positive control).

A short description of data set [2]: Kinetic Solubility in phosphate buffer at pH 7.4. It counts as physicochemical. To be noted: 37 °C, aqueous buffer, kinetic from dmso stock; phosphate buffer pH 7.4. On the procedure: The kinetic solubility of compounds in phosphate buffer at pH 7.4 was assessed. The compounds to be tested were dissolved in dimethylsulfoxide at a 10 mM concentration. Stock samples were diluted, 3 μl with 297 μl of the phosphate buffer at pH 7.4 (DulBecco's phosphate buffered saline (Sigma-Aldrich D8662), overall molarity is 0.149 M and pH 7.43). The samples were then incubated for 24 hours at 37° C. with shaking, the centrifuged and an aliquot taken and tested relative to a known standard concentration of 0.1 mM.

In data set [3] the test system is hepatocytes. It counts as in vitro ADME. To be noted: human. On the procedure: The human […] stability of the compounds as predicted hepatocyte clearance in L/hr/kg was assessed. Compounds to be tested were diluted to 200 μM (4 μl of 10 mM DMSO stock into 196 μl ACN:H2O (50:50). Propranolol was used as a positive control, and buffer only without hepatocytes as 0% control. These were further diluted 4 μl with 891 μl KHB buffer (InVitroGRO catalog number Z99074) to provide 2× dosing solution. To each well of 24 well plate, 250 μl of the 2× dosing solution was added to each well with 250 μl of hepatocytes cells (1×10^6 viable cells/ml per well) or KHB for control samples to achieve a final compound concentration of 1 μM during incubation. The final solvent concentration was 0.01% DMSO and 0.25% ACN. The culture plate was placed on a rocker and incubated at 37° C., 5% CO2. Samples were collected at time 0, 1, 3, and 6 hours. The loss of parent compound was determined using LC-MS methods against a standard curve.

The subject of data set [4] is aberrant GVHD B-cell populations. To be noted: ex vivo; cited from earlier work.

Where only a bound is given, the exact number is not on record here.

`Nc1cncc(-c2cn3ccnc3c(Nc3ccc(N4CCN(C5COC5)CC4)c(OCCO)c3)n2)n1` [Ex.-5, 2-(5-((6-(6-aminopyrazin-2-yl)imidazo[1,2-a]pyrazin-8-yl)amino)-2-(4-(oxetan-3-yl)piperazin-1-yl)phenoxy)ethanol]: in data set [1], the 50% effective concentration (EC50) is < 200 nM and the IC50 is 120 nM. Further, in data set [2], the kinetic solubility at 24 h was > 90 µM. The Hheps CL in data set [3] is 1.17 mL/min/kg.
For `Nc1cncc(-c2cn3ccnc3c(Nc3ccc(N4CCN(CC(CO)CO)CC4)cc3)n2)n1` [Ex.-6, 2-((4-(4-((6-(6-aminopyrazin-2-yl)imidazo[1,2-a]pyrazin-8-yl)amino)phenyl)piperazin-1-yl)methyl)propane-1,3-diol], in that order: < 200 nM, 128 nM, > 90 µM and 1.33 mL/min/kg.
`COc1cc(Nc2ncc(F)c(Nc3ccc4c(n3)N(COP(=O)(O)O)C(=O)C(C)(C)O4)n2)cc(OC)c1OC` [fostamatinib]: the “function and frequency of aberrant GVHD B-cell populations” value in data set [4] is “selectively reduce the function and frequency of aberrant GVHD B-cell populations”.
For `Cc1ncc(-c2cn3ccnc3c(Nc3ccc(N4CCN(C5COC5)CC4)c(OCCO)c3)n2)nc1N` [Ex.-7, 2-(5-((6-(6-amino-5-methylpyrazin-2-yl)imidazo[1,2-a]pyrazin-8-yl)amino)-2-(4-(oxetan-3-yl)piperazin-1-yl)phenoxy)ethanol], the kinetic solubility at 24 h in data set [2] was > 90 µM. In data set [3], this compound gave a Hheps CL of 0.833 mL/min/kg.
Take `Cc1c(-c2cncc(N)n2)nc(Nc2ccc(N3CCN(C4COC4)CC3)cc2)c2nccn12` [Ex.-4, 6-(6-aminopyrazin-2-yl)-5-methyl-N-(4-(4-(oxetan-3-yl)piperazin-1-yl)phenyl)imidazo[1,2-a]pyrazin-8-amine]: in data set [1], the EC50 was < 200 nM and the IC50 was determined as 157 nM. In data set [2], the solubility (kinetic) at 24 h is > 90 µM. Moreover, in data set [3], the Hheps CL was found to be 1.33 mL/min/kg.
Regarding `Nc1cncc(-c2cn3ccnc3c(Nc3ccc(N4CCO[C@@H](CO)C4)cc3)n2)n1` [Ex.-3, (R)-(4-(4-((6-(6-aminopyrazin-2-yl)imidazo[1,2-a]pyrazin-8-yl)amino)phenyl)morpholin-2-yl)methanol], in data set [1], the IC50 came out at 63 nM. Moreover, the solubility (kinetic) at 24 h in data set [2] was > 90 µM. Further, in data set [3], the Hheps CL amounted to 1.5 mL/min/kg.
As for `Cc1ncc(-c2cn3ccnc3c(Nc3ccc(N4CCN(C5COC5)CC4)cc3)n2)nc1N` [Ex.-1, 6-(6-amino-5-methylpyrazin-2-yl)-N-(4-(4-(oxetan-3-yl)piperazin-1-yl)phenyl)imidazo[1,2-a]pyrazin-8-amine], in data set [2], the kinetic solubility at 24 h was > 90 µM. Moreover, in data set [3], the Hheps CL worked out at 2 mL/min/kg.
